Experimental data: ChEMBL document CHEMBL5579788 (Bioorg Med Chem Lett, 2024)

Key:
[1] = Cytotoxicity against HEK293-A cells assessed as reduction in cell viability by CCK-8 assay; type: toxicity, cell-based; conditions: human
[2] = target: Replicase polyprotein 1ab (Severe acute respiratory syndrome coronavirus 2) (UniProt P0DTD1); experiment: Inhibition of SARS CoV-2 main protease at 10 uM relative to control
[3] = target: Replicase polyprotein 1ab (Severe acute respiratory syndrome coronavirus 2, UniProt P0DTD1); experiment: (§1) Inhibition of SARS CoV-2 main protease
SARS-CoV-2 [4] = experiment: Antiviral activity against SARS-CoV-2; type: functional, organism-based; conditions: Severe acute respiratory syndrome coronavirus 2
SARS-CoV-2 [5] = experiment: Antiviral activity against wild type SARS-CoV-2 infected in Vero E6 cells assessed as inhibition of viral induced cytopathic effect incubated for 72 hrs by MTT assay; type: functional, organism-based; conditions: Severe acute respiratory syndrome coronavirus 2, Vero C1008, 72 h
[6] = target: Replicase polyprotein 1ab (Severe acute respiratory syndrome coronavirus 2) (UniProt P0DTD1); experiment: as §1
[7] = target: Replicase polyprotein 1ab (Severe acute respiratory syndrome coronavirus 2) (UniProt P0DTD1); experiment: Inhibition of SARS CoV-2 main protease at 50 uM relative to control

SMILES	inhibition [2] [%]	IC50 [3] [µM]	other results
O=C(Nc1ccc(Cl)cc1)C1c2cccc[n+]2CC(=O)N1Cc1ccc2c(c1)OCO2 (centres undefined)	72.5	6.9	CC50 [1]: > 300 µM
O=C(Nc1ccc(Cl)cc1)C1c2cccc[n+]2CC(=O)N1c1ccc(Cl)cc1 (centres undefined)	75.7	9.6	
Cc1ccccc1NC(=O)C1c2cccc[n+]2CC(=O)N1C (centres undefined)	75.3	4	CC50 [1]: > 300 µM
Cc1ccc(N2C(=O)C[n+]3ccccc3C2C(=O)Nc2ccc(Cl)cc2)cc1Br (centres undefined)	78.2	4.5	CC50 [1]: > 300 µM
Cc1ccc(N2C(=O)C[n+]3ccccc3C2(C)C(=O)Nc2ccc(Cl)cc2)cc1 (centres undefined)	< 20		
O=C(Nc1ccccc1)C1c2cccc[n+]2CC(=O)N1c1ccccc1 (centres undefined)	84.3	5.2	
Cc1cc(C)cc(N2C(=O)C[n+]3ccccc3C2C(=O)Nc2ccccc2C)c1 (centres undefined)	66.6		
Cc1cccc(C)c1NC(=O)C1c2cccc[n+]2CC(=O)N1C (centres undefined)	85.8	8.3	
Cc1cccc(C)c1NC(=O)C1(C)c2cccc[n+]2CC(=O)N1c1ccc(Cl)cc1 (centres undefined)	32.1		
COc1ccc(N2C(=O)C[n+]3ccccc3C2C(=O)Nc2ccc(Cl)cc2)cc1 (centres undefined)	57.7		
CCOc1ccc(NC(=O)C2c3cccc[n+]3CC(=O)N2c2ccc(OCC)cc2)cc1 (centres undefined)	21.7		
C=CCN1C(=O)C[n+]2ccccc2C1C(=O)Nc1c(C)cccc1C (centres undefined)	< 20		
Cc1cc(C)cc(N2C(=O)C[n+]3ccccc3C2C(=O)Nc2ccc(Cl)cc2)c1 (centres undefined)	75.7	8.8	
COc1ccccc1N1C(=O)C[n+]2ccccc2C1C(=O)Nc1c(C)cccc1C (centres undefined)	< 20		
Cc1cccc(C)c1NC(=O)C1c2cccc[n+]2CC(=O)N1c1cccc(C(F)(F)F)c1 (centres undefined)	< 20		
O=C(Nc1ccc(Cl)cc1)C1c2cccc[n+]2CC(=O)N1c1ccc(Br)cc1 (centres undefined)	82.2	8.5	
Cc1ccccc1NC(=O)C1c2cccc[n+]2CC(=O)N1c1c(C)cccc1C (centres undefined)	< 20		
O=C[C@H](C[C@@H]1CCNC1=O)NC(=O)[C@H](Cc1cccc(F)c1)NC(=O)c1cc2ccccc2[nH]1			EC50 (SARS-CoV-2 [4]): 0.72 µM
Cc1cccc(C)c1NC(=O)C1c2cccc[n+]2CC(=O)N1c1ccc2c(c1)OCO2 (centres undefined)	< 20		
O=C(Nc1ccc(Cl)cc1)C1c2cccc[n+]2CC(=O)N1c1cccc(Cl)c1 (centres undefined)	84.5	5.1	
O=C(NC1CCCC1)C(=O)[C@H](CC1CCNC1=O)NC(=O)[C@@H]1[C@H]2CCC[C@H]2CN1C(=O)[C@@H](NC(=O)C(F)(F)F)C1CCCCC1 (some centres undefined)			EC50 (SARS-CoV-2 [5]): 0.095 µM

SMILES	inhibition [2] [%]	IC50 [3] [µM]	other results
Cc1cccc(C)c1NC(=O)C1c2cccc[n+]2CC(=O)N1c1cccc(Cl)c1 (centres undefined)	31		
Cc1ccc(N2C(=O)C[n+]3ccccc3C2C(=O)Nc2ccccc2C)cc1 (centres undefined)	83	6.1	
Cc1ccc(N2C(=O)C[n+]3ccccc3C2C(=O)Nc2c(C)cccc2C)cc1Cl (centres undefined)	< 20		
CCOc1ccc(N2C(=O)C[n+]3ccccc3C2C(=O)Nc2ccc(Cl)cc2)cc1 (centres undefined)	47.2		
CC(C)(C)C(=O)N[C@H](C(=O)N1CC2(C[C@H]1C(=O)N[C@H](C#N)C[C@@H]1CCNC1=O)SCCS2)C(C)(C)C		0.022	EC50 (SARS-CoV-2 [4]): 0.57 µM
CCOc1ccc(NC(=O)C2c3cccc[n+]3CC(=O)N2c2ccc(OC)cc2)cc1 (centres undefined)	30		
COc1ccc(NC(=O)C2c3cccc[n+]3CC(=O)N2c2ccccc2O)cc1 (centres undefined)	26.5		
Cc1ccccc1N1C(=O)C[n+]2ccccc2C1C(=O)Nc1ccccc1 (centres undefined)	78.7	5.6	
CCN1C(=O)C[n+]2ccccc2C1C(=O)Nc1c(C)cccc1C (centres undefined)	< 20		
Cc1cccc(C)c1NC(=O)C1c2cccc[n+]2CC(=O)N1CCO (centres undefined)	< 20		
CN1C(=O)C[n+]2ccccc2C1C(=O)Nc1ccccc1 (centres undefined)	93.3	8.9	
Cc1cccc(C)c1NC(=O)C1c2cccc[n+]2CC(=O)N1Cc1ccc2c(c1)OCO2 (centres undefined)	< 20		
CCc1cccc(C)c1N1C(=O)C[n+]2ccccc2C1C(=O)Nc1ccccc1C (centres undefined)	< 20		
O=C(Nc1ccccc1)C1c2cccc[n+]2CC(=O)N1c1ccc(Br)cc1 (centres undefined)	71.3	8.6	
CCCN1C(=O)C[n+]2ccccc2C1C(=O)Nc1c(C)cccc1C (centres undefined)	< 20		
Cc1cccc(C)c1NC(=O)C1c2cccc[n+]2CC(=O)N1c1ccc(Cl)cc1 (centres undefined)	50.1		
CC1(C(=O)Nc2ccc(Cl)cc2)c2cccc[n+]2CC(=O)N1c1ccc(Cl)cc1 (centres undefined)	< 20		
O=C1C2C3C=CC(CO)(O3)C2C(=O)N1c1cc(C(F)(F)F)ccc1Cl (centres undefined)		4.4	inhibition [6]: Dose-Dependent Effect; inhibition [7]: > 50%
Cc1cccc(N2C(=O)C[n+]3ccccc3C2C(=O)Nc2ccccc2)c1 (centres undefined)	80.5	6.1	inhibition [6]: Dose-Dependent Effect; inhibition [7]: > 50%
CCOc1ccc(NC(=O)C2c3cccc[n+]3CC(=O)N2c2ccccc2)cc1 (centres undefined)	80.4	5	
